Data as given in patent US20240400584A1, “COMPOUNDS AND METHODS FOR MODULATING SPLICING” (REMIX THERAPEUTICS INC., priority 2021, published 2024).

Legend:
[1] = system: HTT; experiment: RT-qPCR splicing assay, HTT AJ/CJ mRNA; format: cell-based, human; conditions: A673 or K562 cells; for IC50: decrease in canonical junction mRNA; for AC50: increase in alternative junction mRNA
Outline: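 HTT and MYB canonical (CJ) and alternative-exon (AJ) junction transcripts quantified by one-step RT-qPCR from lysates of A673 or K562 cells treated 24 h with 11-point 3-fold dilutions (top 10 uM, ≤0.25% DMSO). Ct normalized to GAPDH, GUSB or PPIA and DMSO control (2^−ΔΔCt), expressed as % response.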

[2] = system: MYB; experiment: Gene panel canonical junction qPCR assay, MYB CJ mRNA (Table 7); format: cell-based; conditions: Homo sapiens, read-out: MYB CJ mRNA decrease IC50
Outline: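 Read-out is the IC50 for loss of canonical-junction mRNA, fitted with a four-parameter logistic curve to percentage response. Response came from RT-qPCR on compound-treated A673 or K562 cell lysates, ΔCt against a housekeeping gene and normalized to DMSO.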

Row | Structure (SMILES) | IC50 ([1]; Homo sapiens, 24 h) [µM] | AC50 ([1]; Homo sapiens, 24 h) [µM] | IC50 [2] [µM] | IC50 ([1]; Homo sapiens, 24 hours) [µM] | AC50 ([1]; Homo sapiens, 24 hours) [µM] | IC50 ([1]; 24 hours) [µM] | AC50 ([1]; 24 hours) [µM]
1 | CN(c1ccc2c(n1)OCc1cc(-n3cccn3)ccc1-2)C1CC(C)(C)NC(C)(C)C1 [Compound 148] | 1 to 10 | 1 to 10 | 1 to 10 |  |  |  | 
2 | CN(c1ccc2c(n1)OCc1cc(-c3cnc(=O)[nH]c3)ccc1-2)[C@@H]1C[C@H]2CC[C@@H](C1)N2 [Compound 161] | > 10 | > 10 | > 10 |  |  |  | 
3 | CN(c1ccc2c(n1)OCc1cc(-n3ccnn3)ccc1-2)[C@@H]1C[C@H]2CC[C@@H](C1)N2 [Compound 152] | 0.1 to 1 | < 0.1 | 0.1 to 1 |  |  |  | 
4 | CN(c1ccc2c(n1)OCCc1cc(-c3cn[nH]c3)ccc1-2)[C@@H]1C[C@H]2CC[C@@H](C1)N2 [Compound 146] | 1 to 10 | 1 to 10 | > 10 |  |  |  | 
5 | CN(c1ccc2c(n1)OCc1cc(-c3ccc(=O)[nH]c3)ccc1-2)[C@@H]1C[C@H]2CC[C@@H](C1)N2 [Compound 157] | 1 to 10 | 1 to 10 | 1 to 10 |  |  |  | 
6 | COc1cc(-c2ccc3c(c2)COc2nc(N(C)[C@@H]4C[C@H]5CC[C@@H](C4)N5)ccc2-3)ccn1 [Compound 156] | < 0.1 | < 0.1 | 0.1 to 1 |  |  |  | 
7 | CN(c1ccc2c(n1)OCc1cc(-c3cn[nH]c3)ccc1-2)C1CCNCC1 [Compound 116] | 0.1 to 1 | 1 to 10 | 1 to 10 |  |  |  | 
8 | CN(c1ccc2c(n1)OCc1cc(-c3ccn(C)c(=O)c3)ccc1-2)[C@@H]1C[C@H]2CC[C@@H](C1)N2 [Compound 153] | < 0.1 | < 0.1 | 0.1 to 1 |  |  |  | 
9 | c1cc2c(cc1-c1cn[nH]c1)COc1nc(N[C@@H]3C[C@H]4CC[C@@H](C3)N4)cnc1-2 [Compound 143] | 0.1 to 1 | 0.1 to 1 | 0.1 to 1 |  |  |  | 
10 | CN(c1ccc2c(n1)OCc1cc(-c3cnn(C)c(=O)c3)ccc1-2)[C@@H]1C[C@H]2CC[C@@H](C1)N2 [Compound 160] | < 0.1 | < 0.1 | 0.1 to 1 |  |  |  | 
11 | c1cc2c(cc1-c1cn[nH]c1)COc1nc(N3CCC34CCNC4)ccc1-2 (stereo not drawn) [Compound 207] |  |  | 1 to 10 |  |  |  | 
12 | C[C@H]1C[C@H](N(C)c2ccc3c(c2)OCc2cc(-c4cn[nH]c4)ccc2-3)CCN1 [Compound 102] | > 10 | > 10 | > 10 |  |  |  | 
13 | CN(c1ccc2c(c1)OCc1cc(-n3cccn3)ccc1-2)[C@@H]1C[C@H]2CC[C@@H](C1)N2 [Compound 105] |  |  | > 10 | > 10 | > 10 |  | 
14 | COc1cc(-c2ccc3c(c2)COc2nc(N4CCC(N(C)C)C4)ccc2-3)cnn1 (stereo not drawn) [Compound 306, 1-[8-(6-methoxypyridazin-4-yl)-6H-isochromeno[3,4-b]pyridin-3-yl]-N,N-dimethylpyrrolidin-3-amine] | 0.1 to 1 | 1 to 10 | 1 to 10 |  |  |  | 
15 | CN(c1cnc2c(n1)OCc1cc(-c3cn[nH]c3)ccc1-2)C1CC(C)(C)NC(C)(C)C1 [Compound 142] |  |  | 0.1 to 1 |  |  | 0.1 to 1 | 0.1 to 1
16 | CN(c1ccc2c(n1)OCc1cc(-c3cn[nH]c3)ccc1-2)C1CC(C)(C)NC(C)(C)C1 [Compound 147] | 0.1 to 1 | 0.1 to 1 | 1 to 10 |  |  |  | 
17 | CN(c1ccc2c(n1)COc1cc(-n3cccn3)ccc1-2)[C@@H]1C[C@H]2CC[C@@H](C1)N2 [Compound 124] |  |  | 1 to 10 |  |  | 1 to 10 | 1 to 10
18 | CN(c1ccc2c(n1)OCc1cc(-c3cc(=O)n(C)cn3)ccc1-2)[C@@H]1C[C@H]2CC[C@@H](C1)N2 [Compound 162] | < 0.1 | < 0.1 | 0.1 to 1 |  |  |  | 
19 | COc1cc(-c2ccc3c(c2)COc2nc(N4CCC(NC5(C)CCC5)C4)ccc2-3)cnn1 (stereo not drawn) [Compound 285, 1-[8-(6-methoxypyridazin-4-yl)-6H-isochromeno[3,4-b]pyridin-3-yl]-N-(1-methylcyclobutyl)pyrrolidin-3-amine] | < 0.1 | 0.1 to 1 | 0.1 to 1 |  |  |  | 
20 | COc1cc(-c2ccc3c(c2)COc2nc(N4CCN[C@@H](C)C4)ccc2-3)cnn1 [Compound 287] | 0.1 to 1 | 0.1 to 1 | 1 to 10 |  |  |  | 
21 | CC1(C)CC(Nc2ccc3c(n2)COc2cc(-n4cccn4)ccc2-3)CC(C)(C)N1 [Compound 134] | 1 to 10 | 1 to 10 | 1 to 10 |  |  |  | 
22 | CN(c1ccc2c(n1)OCCc1cc(-c3cn[nH]c3)ccc1-2)C1CC(C)(C)NC(C)(C)C1 [Compound 145] | > 10 | > 10 | 1 to 10 |  |  |  | 
23 | C[C@@H]1C[C@H](N(C)c2ccc3c(c2)OCc2cc(-c4cn[nH]c4)ccc2-3)CCN1 [Compound 101] |  | > 10 | > 10 |  |  |  | 
